The target in assay [1] is T1, Aldehyde dehydrogenase 1A1 (Homo sapiens) (UniProt P00352).
T1 sequence (whole entry): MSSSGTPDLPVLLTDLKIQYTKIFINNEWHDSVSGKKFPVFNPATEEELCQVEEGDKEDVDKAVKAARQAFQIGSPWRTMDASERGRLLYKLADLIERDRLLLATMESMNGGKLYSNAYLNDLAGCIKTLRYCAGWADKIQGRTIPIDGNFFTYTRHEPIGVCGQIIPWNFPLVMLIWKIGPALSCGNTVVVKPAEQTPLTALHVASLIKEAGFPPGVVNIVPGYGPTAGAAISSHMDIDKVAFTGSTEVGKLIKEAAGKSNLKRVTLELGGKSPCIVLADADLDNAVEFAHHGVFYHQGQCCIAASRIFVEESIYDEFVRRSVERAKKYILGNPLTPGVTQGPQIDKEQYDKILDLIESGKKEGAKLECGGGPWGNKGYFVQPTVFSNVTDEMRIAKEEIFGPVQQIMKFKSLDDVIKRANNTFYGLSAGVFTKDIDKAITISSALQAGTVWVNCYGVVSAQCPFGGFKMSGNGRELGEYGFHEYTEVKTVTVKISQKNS
In words: Binding affinity to ALDH1A1 cysteine residue in human 786-O cell soluble proteomic lysate at 5 uM incubated for 1 hr followed by cell lysis by IA-alkyne probe based isoTOP-ABPP analysis.

Assay [2] deals with T2, Heme oxygenase 2 (Homo sapiens) (UniProt P30519).
T2 sequence (whole entry): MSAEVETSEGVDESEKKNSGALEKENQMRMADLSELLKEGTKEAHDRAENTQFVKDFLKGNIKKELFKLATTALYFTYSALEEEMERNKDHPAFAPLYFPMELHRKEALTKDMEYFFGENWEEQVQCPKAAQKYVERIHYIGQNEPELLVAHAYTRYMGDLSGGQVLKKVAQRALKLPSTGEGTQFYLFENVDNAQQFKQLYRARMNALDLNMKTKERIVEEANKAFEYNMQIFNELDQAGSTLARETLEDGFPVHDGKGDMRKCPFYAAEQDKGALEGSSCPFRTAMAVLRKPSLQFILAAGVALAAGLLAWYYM
Nature of the assay: Binding affinity to HMOX2 cysteine residue in human 786-O cell soluble proteomic lysate at 5 uM incubated for 1 hr followed by cell lysis by IA-alkyne probe based isoTOP-ABPP analysis.

Assay [3] deals with T3, Nicotinamide N-methyltransferase (Homo sapiens, UniProt P40261).
T3 sequence (P40261 whole entry): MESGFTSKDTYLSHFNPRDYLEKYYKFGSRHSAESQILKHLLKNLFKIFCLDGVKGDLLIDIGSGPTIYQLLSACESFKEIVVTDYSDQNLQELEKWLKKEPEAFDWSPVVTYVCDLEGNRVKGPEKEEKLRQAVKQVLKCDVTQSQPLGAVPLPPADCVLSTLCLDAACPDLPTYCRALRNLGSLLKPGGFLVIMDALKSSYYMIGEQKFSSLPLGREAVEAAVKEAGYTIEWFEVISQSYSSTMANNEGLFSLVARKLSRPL
In words: Inhibition of NNMT in human 786-O cell lysate using d4-nicotinamide as substrate preincubated for 1 hr followed by substrate and SAM addition measured after 15 to 30 mins by LC-MS analysis.

For assay [4], the target named is T3, Nicotinamide N-methyltransferase. In words: Inhibition of SAH-rhodamine binding to NNMT in human 786-O cell soluble proteomic lysate preincubated for 1 hr followed by SAH-rhodamine addition measured after 5 mins by Gel-based ABPP analysis.
For assay [5] the target is unchanged. Nature of the assay: Inhibition of NNMT in human 786-O cell lysate using d4-nicotinamide as substrate pretreated for 1 hr at 3 mins post 20 uM SAM addition followed by substrate addition measured after 15 to 30 mins by LC-MS analysis.
The test system of assay [6] is T4, Nicotinamide N-methyltransferase (Homo sapiens), P40261 [C165A].
T4 sequence (whole entry): T3 sequence (P40261 whole entry) with C165A
Nature of the assay: Inhibition of NNMT C165A mutant in human 786-O cell lysate using d4-nicotinamide as substrate preincubated for 1 hr followed by substrate and SAM addition measured after 15 to 30 mins by LC-MS analysis.

The target of assay [7] is T5, Nicotinamide N-methyltransferase (Homo sapiens) (UniProt P40261).
T5 sequence (whole entry): T3 sequence (P40261 whole entry)
Nature of the assay: Binding affinity to NNMT C165 residue in human 786-O cell soluble proteomic lysate at 1 to 5 uM incubated for 1 hr followed by cell lysis by IA-alkyne probe based isoTOP-ABPP analysis.

The target of assay [8] is T6, Cytoskeleton-associated protein 4 (Homo sapiens) (UniProt Q07065).
T6 sequence (whole entry): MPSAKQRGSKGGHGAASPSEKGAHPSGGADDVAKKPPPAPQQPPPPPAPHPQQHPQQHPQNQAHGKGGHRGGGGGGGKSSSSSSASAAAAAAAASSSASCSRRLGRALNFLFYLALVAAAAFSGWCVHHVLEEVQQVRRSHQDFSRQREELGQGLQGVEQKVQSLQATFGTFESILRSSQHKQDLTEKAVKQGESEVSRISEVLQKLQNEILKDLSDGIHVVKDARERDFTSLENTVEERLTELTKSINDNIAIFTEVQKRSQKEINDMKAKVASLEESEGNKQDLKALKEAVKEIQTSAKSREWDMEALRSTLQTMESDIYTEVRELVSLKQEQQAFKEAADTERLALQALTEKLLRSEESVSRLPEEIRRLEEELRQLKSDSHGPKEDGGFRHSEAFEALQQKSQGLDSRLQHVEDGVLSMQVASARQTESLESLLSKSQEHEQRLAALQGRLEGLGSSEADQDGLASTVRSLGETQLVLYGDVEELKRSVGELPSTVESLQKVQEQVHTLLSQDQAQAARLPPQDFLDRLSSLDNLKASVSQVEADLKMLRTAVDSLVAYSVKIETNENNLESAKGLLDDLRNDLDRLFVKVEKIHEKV
In words: Binding affinity to CKAP4 cysteine residue in human 786-O cell soluble proteomic lysate at 5 uM incubated for 1 hr followed by cell lysis by IA-alkyne probe based isoTOP-ABPP analysis.

Positions count from the first letter of the chain named. Active and inactive are the calls of the source. The calls are words filed in the database; no cut-off is given here.

By IC50 is commonly meant the concentration that inhibits the measured activity by half.

As to `O=C(Nc1cccnc1Cl)c1cc(N(CCCc2ccccc2)C(=O)CCl)cc(C(F)(F)F)c1`, the result in assay [1] and in assay [2] was Active. Besides, the values for the IC50 in assay [3] and in assay [4] were 17 µM and 22 µM, respectively.
As for `CC(C)CCN(C(=O)CCl)c1cc(C(=O)NCc2cccc([N+](=O)[O-])c2)cc(C(F)(F)F)c1`, the values for the IC50 in assay [5], in assay [3] and in assay [4] were 6.2 µM, 0.18 µM and 0.35 µM, respectively. Further, the inhibition entry in assay [6] is “inactive”. Besides, the result in assay [7], in assay [1], in assay [2] and in assay [8] was Active.

Source of the values: ChEMBL document CHEMBL4229400, “Covalent inhibitors of nicotinamide N-methyltransferase (NNMT) provide evidence for target engagement challenges in situ” (Bioorg Med Chem Lett, 2018).
